Legend:
LacI = LacI (Escherichia coli, UniProt P03023); assay: Genomic SELEX-chip, loss of DNA binding; conditions: inducer; increasing IPTG; lac operator DNA
NanR = molecular target: T1, NanR (Escherichia coli, UniProt P0A8W0); assay: Genomic SELEX-chip, change of DNA-binding specificity; conditions: effector; genomic DNA library
T1 sequence (P0A8W0 1-263): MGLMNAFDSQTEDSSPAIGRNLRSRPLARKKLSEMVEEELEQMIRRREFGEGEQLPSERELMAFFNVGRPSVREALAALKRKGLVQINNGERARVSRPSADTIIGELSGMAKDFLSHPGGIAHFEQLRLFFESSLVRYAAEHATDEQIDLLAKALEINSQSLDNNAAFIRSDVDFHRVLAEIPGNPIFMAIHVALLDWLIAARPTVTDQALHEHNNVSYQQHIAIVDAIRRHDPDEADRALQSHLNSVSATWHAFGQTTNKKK

TorR = molecular target: T2, TorR (Escherichia coli, UniProt P38684); assay: Genomic SELEX-chip, rise of specific DNA binding; conditions: phosphodonor, no TorS; phosphorylation itself not measured; covalent
T2 sequence (P38684 1-230): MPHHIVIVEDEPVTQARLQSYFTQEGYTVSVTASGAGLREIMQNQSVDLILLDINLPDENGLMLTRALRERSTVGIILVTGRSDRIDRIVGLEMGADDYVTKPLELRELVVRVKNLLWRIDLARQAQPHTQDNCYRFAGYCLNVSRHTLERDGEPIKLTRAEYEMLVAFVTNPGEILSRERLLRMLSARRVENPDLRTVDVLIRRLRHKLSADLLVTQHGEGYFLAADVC

KdpE = molecular target: T3, KdpE (Escherichia coli, UniProt P21866); assay: Genomic SELEX-chip, rise of specific DNA binding; conditions: phosphodonor, no KdpD; phosphorylation itself not measured; covalent
T3 sequence (P21866 1-225): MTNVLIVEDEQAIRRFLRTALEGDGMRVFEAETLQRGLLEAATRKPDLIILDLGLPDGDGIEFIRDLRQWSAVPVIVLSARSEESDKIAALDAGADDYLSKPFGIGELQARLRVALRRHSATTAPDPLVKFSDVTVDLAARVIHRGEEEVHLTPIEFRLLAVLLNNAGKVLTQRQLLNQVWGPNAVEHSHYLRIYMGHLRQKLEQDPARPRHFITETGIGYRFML

Chain of LacI (P03023 whole entry): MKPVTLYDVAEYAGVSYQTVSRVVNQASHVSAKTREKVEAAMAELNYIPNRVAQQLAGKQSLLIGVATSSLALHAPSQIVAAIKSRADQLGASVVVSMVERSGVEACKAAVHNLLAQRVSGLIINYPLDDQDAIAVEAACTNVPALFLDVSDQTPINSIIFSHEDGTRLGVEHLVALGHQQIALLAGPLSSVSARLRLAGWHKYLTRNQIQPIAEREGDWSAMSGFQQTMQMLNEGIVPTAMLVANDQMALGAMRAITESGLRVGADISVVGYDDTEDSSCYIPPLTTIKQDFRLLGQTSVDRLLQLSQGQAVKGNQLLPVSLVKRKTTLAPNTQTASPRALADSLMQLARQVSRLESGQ

CC(C)S[C@@H]1O[C@H](CO)[C@H](O)[C@H](O)[C@H]1O [IPTG]
Genomic SELEX-chip, loss of DNA binding (LacI): level of LacI binding at the lacZ promoter region decreased concomitant with the increased addition of IPTG

CC(=O)N[C@H]1[C@H]([C@H](O)[C@H](O)CO)OC(O)(C(=O)O)C[C@@H]1O (stereo partly shown) [Neu5Ac]
Genomic SELEX-chip, change of DNA-binding specificity (NanR): The binding of NanR to these non-specific sites disappeared in the presence of Neu5Ac

CC(=O)OP(=O)(O)O [AcP]
Genomic SELEX-chip, rise of specific DNA binding (TorR): the level of TorR binding to this target was higher in the presence of AcP | Genomic SELEX-chip, rise of specific DNA binding (KdpE): The binding affinity to this single target increased in the presence of AcP
